This note sets out measurements from ChEMBL document CHEMBL4321785, “Challenges and Opportunities for Therapeutics Targeting the Voltage-Gated Sodium Channel Isoform NaV1.7” (J Med Chem, 2019).

The species named for data set [1] is Homo sapiens. Description: Selectivity index, ratio of IC50 for inhibition of human Nav1.1 expressed in HEK293 cells by electrophysiology assay to IC50 for inhibition of human Nav1.7 expressed in HEK293 cells by electrophysiology assay. In kind it is cell-based.
Data set [2] can be described thus: Ratio of unbound plasma concentration in mouse model of inherited erythromelalgia to IC50 for inhibition of human Nav1.7 expressed in HEK293 cells by electrophysiology assay. It counts as cell-based.
The species named for data set [3] is Homo sapiens. Description: Selectivity index, ratio of IC50 for inhibition of human Nav1.2 expressed in HEK293 cells by electrophysiology assay to IC50 for inhibition of human Nav1.7 expressed in HEK293 cells by electrophysiology assay. It counts as cell-based.
A short description of data set [4]: Ratio of unbound plasma concentration in mouse model of formalin-induced pain to IC50 for inhibition of mouse Nav1.7 expressed in HEK293 cells by electrophysiology assay. In kind it is cell-based.
Data set [5] is filed under the species Homo sapiens. The data set can be described thus: Selectivity index, ratio of IC50 for inhibition of human Nav1.5 expressed in HEK293 cells by electrophysiology assay to IC50 for inhibition of human Nav1.7 expressed in HEK293 cells by electrophysiology assay. It counts as cell-based.
Data set [6] is filed under the species Homo sapiens. Description: Selectivity index, ratio of IC50 for inhibition of human Nav1.6 expressed in HEK293 cells by electrophysiology assay to IC50 for inhibition of human Nav1.7 expressed in HEK293 cells by electrophysiology assay. It counts as cell-based.
The target of data set [7] is Sodium channel protein type 10 subunit alpha (Mus musculus, UniProt Q6QIY3). Description: Binding affinity to mouse Nav1.8 […] by radioligand binding assay.
The species entered for data set [8] is Homo sapiens. The data set can be described thus: Selectivity ratio of Kd for binding affinity to human recombinant Nav1.1 by radioligand binding assay to Kd for binding affinity to human recombinant Nav1.7 by radioligand binding assay.
The target in data set [9] is T1, Sodium channel protein type 8 subunit alpha (Homo sapiens, UniProt Q9UQD0). Description: Binding affinity to human recombinant Nav1.6 by radioligand binding assay.
Data set [10] is described as follows: Unbound fraction in mouse plasma. It counts as ADME, cell-free.
For data set [11], the target named is T2, Sodium channel protein type 5 subunit alpha (Homo sapiens, UniProt Q14524). The data set can be described thus: Binding affinity to human recombinant Nav1.5 by radioligand binding assay.
Data set [12] is described as follows: Ratio of unbound plasma concentration in mouse model of SNI-induced pain to Kd for binding affinity to mouse Nav1.7 by radioligand binding assay. In kind it is ADME. Conditions: in vivo.
Data set [13] in a line: Ratio of unbound plasma concentration in mouse model of CFA-induced cold allodynia to Kd for binding affinity to mouse Nav1.7 by radioligand binding assay. In kind it is ADME. Conditions: in vivo.
Data set [14] is filed under the species Homo sapiens. Description: Selectivity ratio of Kd for binding affinity to human recombinant Nav1.5 by radioligand binding assay to Kd for binding affinity to human recombinant Nav1.7 by radioligand binding assay.
The species entered for data set [15] is Homo sapiens. The data set can be described thus: Selectivity ratio of Kd for binding affinity to human recombinant Nav1.3 by radioligand binding assay to Kd for binding affinity to human recombinant Nav1.7 by radioligand binding assay.
The nature of data set [16]: Plasma concentration in mouse model of pain at 60 mg/kg, po during hot plate test. In kind it is ADME, organism-based. As to conditions: in vivo. On the technique in general: Hot-plate and tail-flick tests time the reaction to a heat stimulus.
The species named for data set [17] is Homo sapiens. Description: Selectivity ratio of Kd for binding affinity to human recombinant Nav1.4 by radioligand binding assay to Kd for binding affinity to human recombinant Nav1.7 by radioligand binding assay.
Data set [18] is described as follows: Ratio of plasma concentration in mouse model of capsaicin-induced pain at 60 mg/kg, po during von Frey test to IC50 for inhibition of mouse Nav1.7 expressed in HEK293 cells by electrophysiology assay. As to conditions: in vivo. It counts as organism-based.
In data set [19] the target is Sodium channel protein type 9 subunit alpha (Mus musculus, UniProt Q62205). Description: Binding affinity to mouse Nav1.7 by radioligand binding assay.
Data set [20] can be described thus: Ratio of plasma concentration in mouse model of pain at 60 mg/kg, po during tail immersion test to IC50 for inhibition of mouse Nav1.7 expressed in HEK293 cells by electrophysiology assay. In kind it is organism-based. Conditions: in vivo.
For data set [21], the target named is T3, Sodium channel protein type 4 subunit alpha (Homo sapiens, UniProt P35499). The data set can be described thus: Binding affinity to human recombinant Nav1.4 by radioligand binding assay.
The species named for data set [22] is Homo sapiens. The data set can be described thus: Selectivity ratio of Kd for binding affinity to human recombinant Nav1.6 by radioligand binding assay to Kd for binding affinity to human recombinant Nav1.7 by radioligand binding assay.
Data set [23] has as its target Sodium channel protein type 3 subunit alpha (Homo sapiens, UniProt Q9NY46). The data set can be described thus: Binding affinity to human recombinant Nav1.3 by radioligand binding assay.
The target in data set [24] is T4, Sodium channel protein type 2 subunit alpha (Homo sapiens, UniProt Q99250). The data set can be described thus: Binding affinity to human recombinant Nav1.2 by radioligand binding assay.
For data set [25], the target named is Sodium channel protein type 1 subunit alpha (Homo sapiens, UniProt P35498). Description: Binding affinity to human recombinant Nav1.1 by radioligand binding assay.
Data set [26] in a line: Ratio of plasma concentration in mouse model of CFA-induced pain at 60 mg/kg, po during Hargreaves test to IC50 for inhibition of mouse Nav1.7 expressed in HEK293 cells by electrophysiology assay. In kind it is organism-based. As to conditions: in vivo.
Data set [27] in a line: Plasma concentration in mouse model of pain at 60 mg/kg, po during tail immersion test. In kind it is ADME, organism-based. Conditions: in vivo.
Data set [28] in a line: Ratio of unbound plasma concentration in mouse model of formalin-induced pain to Kd for binding affinity to mouse Nav1.7 by radioligand binding assay. In kind it is ADME. As to conditions: in vivo.
A short description of data set [29]: Ratio of plasma concentration in mouse model of pain at 60 mg/kg, po during hot plate test to IC50 for inhibition of mouse Nav1.7 expressed in HEK293 cells by electrophysiology assay. It counts as organism-based. As to conditions: in vivo.
A short description of data set [30]: Ratio of unbound plasma concentration in mouse model of STZ-induced pain measured on day 1 to Kd for binding affinity to mouse Nav1.7 by radioligand binding assay. Conditions: in vivo. In kind it is ADME.
A short description of data set [31]: Ratio of unbound plasma concentration in mouse model of inherited erythromelalgia to Kd for binding affinity to recombinant human Nav1.7 by radioligand binding assay. In kind it is ADME. As to conditions: in vivo.
Data set [32] can be described thus: Plasma concentration in mouse model of CFA-induced pain at 60 mg/kg, po during Hargreaves test. In kind it is ADME, organism-based. As to conditions: in vivo.
Data set [33] is filed under the species Homo sapiens. The data set can be described thus: Selectivity ratio of Kd for binding affinity to human recombinant Nav1.2 by radioligand binding assay to Kd for binding affinity to human recombinant Nav1.7 by radioligand binding assay.
Data set [34] in a line: Plasma concentration in mouse model of capsaicin-induced pain at 60 mg/kg, po during von Frey test. It counts as ADME, organism-based. Conditions: in vivo.
A short description of data set [35]: Ratio of plasma concentration in mouse model of pain at 60 mg/kg, po during Randall-Selitto test to IC50 for inhibition of mouse Nav1.7 expressed in HEK293 cells by electrophysiology assay. As to conditions: in vivo. In kind it is organism-based.
A short description of data set [36]: Plasma concentration in mouse model of pain at 60 mg/kg, po during Randall-Selitto test. In kind it is ADME, organism-based. As to conditions: in vivo.
Data set [37] concerns the target Sodium channel protein type 10 subunit alpha (Homo sapiens, UniProt Q9Y5Y9). The data set can be described thus: Inhibition of human Nav1.8 expressed in HEK293 cells by electrophysiology assay. In kind it is cell-based.
The target of data set [38] is T4, Sodium channel protein type 2 subunit alpha. Description: Inhibition of human Nav1.2 expressed in HEK293 cells by electrophysiology assay. It counts as cell-based.
Data set [39] deals with T1, Sodium channel protein type 8 subunit alpha. Description: Inhibition of human Nav1.6 expressed in HEK293 cells by electrophysiology assay. It counts as cell-based.
The species entered for data set [40] is Homo sapiens. The data set can be described thus: Selectivity index, ratio of IC50 for inhibition of human Nav1.8 expressed in HEK293 cells by electrophysiology assay to IC50 for inhibition of human Nav1.7 expressed in HEK293 cells by electrophysiology assay. It counts as cell-based.
The target in data set [41] is T2, Sodium channel protein type 5 subunit alpha. Description: Inhibition of human Nav1.5 expressed in HEK293 cells by electrophysiology assay. In kind it is cell-based.
Data set [42] addresses Sodium channel protein type 9 subunit alpha (Homo sapiens, UniProt Q15858). Description: Inhibition of human Nav1.7 expressed in HEK293 cells by electrophysiology assay. In kind it is cell-based.
The target in data set [43] is Sodium channel protein type 9 subunit alpha (Rattus norvegicus, UniProt O08562). The data set can be described thus: Inhibition of rat Nav1.7 expressed in HEK293 cells by electrophysiology assay. It counts as cell-based.
Data set [44] addresses T3, Sodium channel protein type 4 subunit alpha. The data set can be described thus: Inhibition of human Nav1.4 expressed in HEK293 cells by electrophysiology assay. It counts as cell-based.

T4 sequence (Q99250 whole entry): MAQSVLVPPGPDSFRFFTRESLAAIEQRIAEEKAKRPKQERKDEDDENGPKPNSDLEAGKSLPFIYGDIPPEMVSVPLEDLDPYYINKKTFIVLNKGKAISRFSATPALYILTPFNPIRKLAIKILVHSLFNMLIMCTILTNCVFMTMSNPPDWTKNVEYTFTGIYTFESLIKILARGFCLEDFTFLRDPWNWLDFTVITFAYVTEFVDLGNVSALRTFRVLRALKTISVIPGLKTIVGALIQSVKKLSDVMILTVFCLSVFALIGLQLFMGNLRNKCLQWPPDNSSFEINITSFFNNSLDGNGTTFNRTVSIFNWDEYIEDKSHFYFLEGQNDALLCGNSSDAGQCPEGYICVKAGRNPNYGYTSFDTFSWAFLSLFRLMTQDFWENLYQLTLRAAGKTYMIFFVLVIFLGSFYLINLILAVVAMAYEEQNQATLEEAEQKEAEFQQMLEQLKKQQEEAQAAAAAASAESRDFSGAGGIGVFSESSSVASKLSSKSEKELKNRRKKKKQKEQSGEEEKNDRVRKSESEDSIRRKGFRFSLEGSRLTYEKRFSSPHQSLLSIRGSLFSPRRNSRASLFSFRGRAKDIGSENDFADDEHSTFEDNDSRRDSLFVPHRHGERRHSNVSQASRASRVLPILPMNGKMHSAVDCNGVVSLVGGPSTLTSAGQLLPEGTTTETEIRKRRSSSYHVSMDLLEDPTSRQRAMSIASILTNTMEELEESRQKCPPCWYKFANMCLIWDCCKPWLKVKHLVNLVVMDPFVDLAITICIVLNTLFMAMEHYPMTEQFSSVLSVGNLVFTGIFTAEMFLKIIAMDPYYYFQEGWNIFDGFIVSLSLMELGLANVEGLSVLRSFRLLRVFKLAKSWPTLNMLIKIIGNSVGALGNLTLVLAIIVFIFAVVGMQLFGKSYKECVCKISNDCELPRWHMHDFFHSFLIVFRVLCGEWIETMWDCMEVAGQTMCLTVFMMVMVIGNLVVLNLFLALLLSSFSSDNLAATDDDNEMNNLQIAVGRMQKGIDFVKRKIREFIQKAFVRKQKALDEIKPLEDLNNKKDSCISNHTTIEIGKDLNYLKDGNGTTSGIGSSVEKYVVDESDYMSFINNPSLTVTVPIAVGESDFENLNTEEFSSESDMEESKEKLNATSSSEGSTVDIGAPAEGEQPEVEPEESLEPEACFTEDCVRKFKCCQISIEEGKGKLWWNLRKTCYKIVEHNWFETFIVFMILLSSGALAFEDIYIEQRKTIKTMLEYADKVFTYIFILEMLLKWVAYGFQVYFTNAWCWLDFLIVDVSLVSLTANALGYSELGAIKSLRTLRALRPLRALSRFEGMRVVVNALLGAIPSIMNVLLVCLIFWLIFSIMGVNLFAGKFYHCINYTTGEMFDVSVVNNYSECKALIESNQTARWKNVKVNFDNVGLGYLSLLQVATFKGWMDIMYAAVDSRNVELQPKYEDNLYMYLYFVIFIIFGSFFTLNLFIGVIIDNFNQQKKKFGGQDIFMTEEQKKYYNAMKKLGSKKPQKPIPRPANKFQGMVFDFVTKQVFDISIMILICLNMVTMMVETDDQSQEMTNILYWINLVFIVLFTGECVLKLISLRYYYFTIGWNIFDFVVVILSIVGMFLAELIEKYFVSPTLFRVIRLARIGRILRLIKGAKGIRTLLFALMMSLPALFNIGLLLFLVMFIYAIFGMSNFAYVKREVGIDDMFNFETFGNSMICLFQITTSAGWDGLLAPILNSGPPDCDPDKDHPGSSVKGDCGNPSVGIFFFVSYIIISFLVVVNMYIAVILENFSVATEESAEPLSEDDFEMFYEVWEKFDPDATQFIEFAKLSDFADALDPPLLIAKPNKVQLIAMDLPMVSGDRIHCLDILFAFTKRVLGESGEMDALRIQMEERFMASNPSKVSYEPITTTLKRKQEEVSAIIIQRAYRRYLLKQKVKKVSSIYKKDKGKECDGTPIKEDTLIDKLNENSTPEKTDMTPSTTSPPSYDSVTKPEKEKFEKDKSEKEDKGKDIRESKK
T3 sequence (P35499 whole entry): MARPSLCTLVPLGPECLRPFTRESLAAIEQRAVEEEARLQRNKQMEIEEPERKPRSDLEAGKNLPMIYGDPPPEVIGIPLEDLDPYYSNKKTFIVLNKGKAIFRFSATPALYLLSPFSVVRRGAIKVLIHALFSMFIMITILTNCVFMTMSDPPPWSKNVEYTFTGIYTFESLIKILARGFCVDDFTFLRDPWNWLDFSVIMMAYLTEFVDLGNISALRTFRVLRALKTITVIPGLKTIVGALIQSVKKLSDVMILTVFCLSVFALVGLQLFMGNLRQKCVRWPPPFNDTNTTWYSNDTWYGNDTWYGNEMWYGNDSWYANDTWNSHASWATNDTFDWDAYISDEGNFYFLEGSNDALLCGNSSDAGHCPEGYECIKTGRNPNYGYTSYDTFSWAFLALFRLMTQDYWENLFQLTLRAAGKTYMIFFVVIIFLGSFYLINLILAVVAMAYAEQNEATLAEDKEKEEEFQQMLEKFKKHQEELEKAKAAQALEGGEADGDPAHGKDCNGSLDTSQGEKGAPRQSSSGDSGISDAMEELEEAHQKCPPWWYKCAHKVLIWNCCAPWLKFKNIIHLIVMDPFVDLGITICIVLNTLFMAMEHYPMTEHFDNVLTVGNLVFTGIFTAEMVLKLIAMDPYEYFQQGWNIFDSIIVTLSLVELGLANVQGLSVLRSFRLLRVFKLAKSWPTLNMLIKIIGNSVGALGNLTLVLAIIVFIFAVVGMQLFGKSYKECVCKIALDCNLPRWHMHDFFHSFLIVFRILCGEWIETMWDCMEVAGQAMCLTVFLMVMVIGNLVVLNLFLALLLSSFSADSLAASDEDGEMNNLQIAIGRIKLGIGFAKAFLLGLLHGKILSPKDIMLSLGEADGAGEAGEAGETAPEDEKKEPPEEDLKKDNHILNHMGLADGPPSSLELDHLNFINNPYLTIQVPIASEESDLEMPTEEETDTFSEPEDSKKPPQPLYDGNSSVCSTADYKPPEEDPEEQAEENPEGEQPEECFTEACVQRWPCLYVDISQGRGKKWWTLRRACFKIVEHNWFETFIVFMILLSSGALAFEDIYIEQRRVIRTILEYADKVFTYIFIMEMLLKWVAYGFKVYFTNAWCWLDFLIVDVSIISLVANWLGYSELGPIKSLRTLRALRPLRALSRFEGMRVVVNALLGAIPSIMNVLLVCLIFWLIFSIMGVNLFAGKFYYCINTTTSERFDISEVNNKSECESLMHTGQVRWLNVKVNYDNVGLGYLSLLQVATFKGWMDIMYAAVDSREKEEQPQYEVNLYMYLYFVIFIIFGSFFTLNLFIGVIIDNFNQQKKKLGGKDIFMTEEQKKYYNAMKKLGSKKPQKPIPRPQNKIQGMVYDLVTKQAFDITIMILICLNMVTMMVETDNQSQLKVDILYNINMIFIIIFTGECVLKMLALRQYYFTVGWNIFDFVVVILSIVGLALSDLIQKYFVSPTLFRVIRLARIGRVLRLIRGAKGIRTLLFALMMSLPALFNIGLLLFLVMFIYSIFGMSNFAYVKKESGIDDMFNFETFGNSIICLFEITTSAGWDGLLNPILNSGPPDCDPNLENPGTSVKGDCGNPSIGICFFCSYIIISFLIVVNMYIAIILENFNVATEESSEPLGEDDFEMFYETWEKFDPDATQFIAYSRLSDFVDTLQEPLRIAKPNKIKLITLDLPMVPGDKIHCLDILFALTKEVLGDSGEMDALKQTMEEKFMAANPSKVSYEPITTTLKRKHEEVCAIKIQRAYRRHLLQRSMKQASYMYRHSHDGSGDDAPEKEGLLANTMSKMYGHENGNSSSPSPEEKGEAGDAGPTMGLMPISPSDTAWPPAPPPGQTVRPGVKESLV

Consider `CC1(COc2cc(F)c(C(=O)NS(=O)(=O)C3CC3)cc2C2CC2)CCC2(CC1)CC2`, for which the Ratio IC50 in data set [1] was 10; in data set [3] it was 3.3; in data set [5], 83; in data set [6], 63. The Ratio in data set [2] was 5.2; in data set [4] it was 22.

For `Cc1nn([C@@H]2CCN([C@H](C)c3cc(Cl)cc(Cl)c3)C2)c2cc(F)c(C(=O)NS(=O)(=O)C3CC3)cc12`, the Kd in data set [7] came out at 22 µM; in data set [9] it was 620 nM; in data set [11], 460 nM; in data set [19] it was 14 nM; in [21], 47 nM; in data set [23] it was 110 nM. Further, the Kd in [24] and in data set [25] was 140 nM throughout. Also, the Ratio Ki came to 6.4 in [8]; 21 in [14]; 5 in data set [15]; 2.1 in data set [17]; 28 in [22]; 6.4 in data set [33]. Also, in data set [10], the fraction unbound is 0.007. Moreover, the Ratio in data set [12] was found to be 5.7; in [13], 6.2; in data set [18] it was 16; in data set [20] it was 25; in [26], 34; in data set [28], 3.3. Besides, the Ratio in data set [29] stood at 25; in data set [30], 5; in data set [31], 2.3; in [35], 25. Moreover, the concentration came to 49.3 µM in [16]; 49.3 µM in [27]; 67.9 µM in [32]; 31.1 µM in data set [34]; 49.3 µM in data set [36].

Turning to `O=C1N(Cc2ccc(C(F)(F)F)o2)c2ccccc2[C@]12COc1cc3c(cc12)OCO3` [FUNAPIDE], the half-inhibitory concentration (IC50) in data set [37] was 4.8 µM; in [38], 600 nM; in [39], 170 nM; in data set [41] it was 84 nM; in data set [42], 54 nM. Moreover, the Ratio IC50 in [40] came to 89; in data set [3] it was 11; in [5] it was 1.5; in [6] it was 3.1.

For the molecule `CSCC[C@@H]1NC(=O)[C@H](Cc2ccc(O)cc2)NC(=O)[C@H](CCCNC(=N)N)NC(=O)[C@@H](NC(=O)[C@@H](N)CC(=O)O)CSSC[C@@H]2NC(=O)[C@@H]3CSSC[C@@H](C(=O)N[C@@H](C)C(=O)N[C@@H](Cc4c[nH]c5ccccc45)C(=O)N[C@@H](CC(=O)O)C(=O)N[C@@H](Cc4ccccc4)C(=O)N[C@H](C(=O)N[C@@H](Cc4ccccc4)C(=O)N[C@H](C(=O)O)[C@@H](C)O)[C@@H](C)O)NC(=O)[C@H](Cc4ccc(O)cc4)NC(=O)[C@H](CCCCN)NC(=O)[C@H](CCSC)NC(=O)[C@H](CCCCN)NC(=O)[C@H](CCCNC(=N)N)NC(=O)[C@H](CCCCN)NC(=O)[C@H](CSSC[C@H](NC(=O)[C@H](CC(=O)O)NC(=O)CNC(=O)[C@H](Cc4ccccc4)NC1=O)C(=O)N[C@@H](CCC(=O)O)C(=O)N[C@@H](CCCCN)C(=O)N[C@@H](CC(=O)O)C(=O)N[C@@H](CCC(=O)O)C(=O)N[C@@H](CC(=O)O)C(=O)N3)NC(=O)CNC(=O)[C@H](CC(C)C)NC(=O)[C@H](Cc1cnc[nH]1)NC(=O)[C@H](CCCCN)NC2=O`, the values for the half-inhibitory concentration (IC50) in data set [43], in data set [38] and in [44] were 1.5 nM, 120 nM and 140 nM, respectively.

Broadly, the Kd is the concentration at which binding is half-saturated. For orientation: fraction unbound means free concentration divided by total concentration. A low value points to little free substance. As usually defined, the IC50 is the point on the concentration scale where inhibition reaches its midpoint. Low readings indicate greater potency in that assay, high ones weaker potency in that assay.
